# Read-outs that look alike come from different tables or passages of the source.
# Legend:
# HER2 [1] = experiment: HER2 degradation in BT-474 cells (Example 3, Methods 1 and 2); type: cell-based, human
# In short: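 BT-474 cells treated 24 h at 37 °C with 10-point 3-fold compound dilutions; HER2 read by in-cell immunofluorescence after paraformaldehyde fixation, signal normalized to DRAQ5 nuclear stain, EC50 from curve fit. Degradation also checked by western blot of cytosolic lysates against tubulin.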
# HER2 [2] = experiment: HER2 degradation assay with BT-474 cell line (Example 12, FACS); type: cell-based, human
# [3] = tested on: human breast cancer cell line BT-474; experiment: Cytotoxicity assay (CellTiter-Glo, 72 h), BT-474; type: cell-based; conditions: BT-474, 72 h, read-out: Cytotoxicity (IC50, nM) BT-474
# Method: (§1) Cytotoxicity of SDC-TRAP molecules was determined in three cancer cell lines. […] 80 μL of CellTiter-Glo was added to each well, followed by room temperature incubation in the dark for 15 minutes. Cell was determined by luminescence. IC50 was calculated using XLfit™ software.
# [4] = tested on: human urinary bladder cancer cell line RT-112; experiment: Cytotoxicity assay (CellTiter-Glo, 72 h), RT-112; type: cell-based; conditions: RT-112, 72 h, read-out: Cytotoxicity (IC50, nM) RT-112
# Method: as §1
# [5] = tested on: human urinary bladder cancer cell line SW780; experiment: Cytotoxicity assay (CellTiter-Glo, 72 h), SW780; type: cell-based; conditions: SW780, 72 h, read-out: Cytotoxicity (IC50, nM) SW-780
# Method: as §1
# [6] = Stability in cell culture media (Example 18)
# Method: 98 μL of DMEM+10% FBS, +1% P/S, +1.5 g/L sodium bicarbonate cell culture media was mixed with 2 μL of DMSO and aliquotted into 96-well plates at 250 μL per 0, 1, 2, and 18 hour time point.
# 3×50 μL media samples in 96 were held in 96-well plates at −80° C. until the last time point was extracted. 200 μL of methanol containing IS was added and mixed by vortex at 1500 rpm for 1.5 minutes at room temperature. The samples were centrifuged at 4400 rpm for 10 minutes at 8° C.
# [7] = Artificial membrane permeability assay (PAMPA); conditions: same protocol, second table
# [8] = tested on: HCT-116 human colorectal xenografts; experiment: Mouse xenograft efficacy in HCT-116 colon cancer model; conditions: IV, Q7D×3, then drug-free period; SDC-TRAP-0063 200 and 100 mg/kg, SDC-TRAP-0046 94 mg/kg, irinotecan 67 mg/kg, SYN-01 100 mg/kg
# Method: The cells were maintained in vitro as a monolayer culture in McCoy's 5a Medium. Fetal bovine serum was then be added to the medium. The final concentration of fetal bovine serum was 10%. Cells were cultured at 37° C. and 5% CO2. The tumor cells were routinely sub-cultured twice weekly by trypsin-EDTA treatment. Cells in an exponential growth phase were harvested and counted for tumor inoculation.
# 100 18-22 g, 5-7 week old, female BALB/cA nude mice were inoculated with the HCT 116 cells (2.0×10^6, 1:1 with Matrigel) subcutaneously on the back of each animal (0.1 mL/mouse). When the average tumor volume reached about 150-250 mm^3, 60 of the inoculated mice was selected based on tumor growth and randomly grouped into 6 treatment groups (10 mice per group) according to the following table.
# The administrations were made with 27-gauge IV needle.
# During the treatment period, the implanted tumors were measured by caliper twice per week. The tumors were measured for the maximum width (X) and length (Y) and the tumor volumes (V) were calculated using the formula: V=(X^2Y)/2. The differences in the tumor volume between the control and treatment groups were analyzed for significance using the unpaired two-tailed Student's t-test. P<0.05 was considered to be statistically significant. The animal body weights were also weighed and recorded twice per week.
# [9] = Mouse plasma stability protocol, up to 1 h (Examples 16-18)
# Method: 150 ng/mL solution of SDC-TRAP-0002 in methanol was prepared using the internal standard spiking solution. This solution was used to precipitate all plasma samples in the study. 200 μL was pipetted into a 96 deepwell plate over dry ice. 10 μL of 1 mM stock in DMSO was added to a 1.5 mL microfuge tube, then 990 μL of plasma. Samples were mixed by vortex, then 50 μL of each sample was added in triplicate to a 96-well plate containing internal standard solution. This was designated the 0 hour time point sample. 250 μL of the remaining plasma sample was added to each of four 96 deepwell plates—one per time point. Samples were incubated at 37° C. with gentle shaking for 0.25, 0.5, and 1 hour. After each time point, one plate of each sample was removed from the shaker and placed on wet ice for approximately 2 minutes. 50 μL at plasma aliquots (in triplicate) were added to the deepwell plate containing internal standard solution. After the last time point was extracted, the 96 deepwell plate was vortexed, then centrifuged at 2-8° C. 150 μL of supernatant was collected and 25 μL at of water was added. Samples were mixed and analyzed by LC-MS/MS.
# 990 μL mouse plasma aliquots from a common stock were spiked with 10 μL of 1 mM stock of one of seven SDC-TRAP samples identified in the table below. Each sample was mixed and divided into 250 μL aliquots, each representing time points 0, 15 minutes, 30 minutes or 1 hour. At the prescribed time point, 3×50 μL samples were each mixed with 200 μL of methanol containing internal standard and held on dry ice until all time point samples were extracted. The samples collectively were vortex mixed for 1.5 minutes at 1500 rpm, then centrifuged at 4400 rpm for 10 minutes at 8° C.
# [10] = Tissue Distribution Data for SDC-TRAP-0046, Time (h) 0.083
# [11] = Tissue Distribution Data for SDC-TRAP-0046, Time (h) 6
# [12] = Tissue Distribution Data for SDC-TRAP-0046, Time (h) 12
# [13] = Tissue Distribution Data for SDC-TRAP-0046, Time (h) 24
# [14] = Tissue Distribution Data for SDC-TRAP-0046, Time (h) 48
# [15] = after SDC-TRAP-0046 50 mg/110 mL/kg IV, DRD, 6 h
# [16] = after SDC-TRAP-0046 50 mg/110 mL/kg IV, DRD, 12 h
# [17] = after SDC-TRAP-0046 50 mg/110 mL/kg IV, DRD, 24 h
# [18] = after SDC-TRAP-0046 50 mg/110 mL/kg IV, DRD, 48 h
smiles,measurement,setting,value
"CCc1c2c(nc3ccc(OC(=O)N4CCN(Cc5ccc(-n6c(O)nnc6-c6cc(C(C)C)c(O)cc6O)cc5)CC4)cc13)-c1cc3c(c(=O)n1C2)COC(=O)C3(O)CC (stereo not shown) [SDC-TRAP-0046, 4,11-diethyl-4-hydroxy-3,14-dioxo-3,4,12,14-tetrahydro-1H-pyrano[3′,4′:6,7]indolizino[1,2-b]quinolin-9-yl 4-(4-(3-(2,4-dihydroxy-5-isopropylphenyl)-5-hydroxy-4H-1,2,4-triazol-4-yl)benzyl)piperazine-1-carboxylate]",IC50,HER2 [1],246 nM
same,IC50,HER2 [2],246 nM
same,IC50,[3],205 nM
same,IC50,[4],20 nM
same,IC50,[5],489 nM
same,Plasma Conc.,[10],360000 nM
same,Tumor Conc.,[10],6.94 nmol/g of tissue
same,Tumor/Plasma Ratio,[10],0.0193
same,Plasma Conc.,[11],5880 nM
same,Tumor Conc.,[11],4.97 nmol/g of tissue
same,Tumor/Plasma Ratio,[11],0.844
same,Plasma Conc.,[12],2370 nM
same,Tumor Conc.,[12],5.21 nmol/g of tissue
same,Tumor/Plasma Ratio,[12],2.20
same,Plasma Conc.,[13],54.2 nM
same,Tumor Conc.,[13],2.19 nmol/g of tissue
same,Tumor/Plasma Ratio,[13],40.3
same,Plasma Conc.,[14],BQL
same,Tumor Conc.,[14],0.188 nmol/g of tissue
same,Plasma Conc.,[15],5880 nM
same,Tumor Conc.,[15],4.97 nmol/g of tissue
same,Plasma Conc.,[16],2370 nM
same,Tumor Conc.,[16],5.21 nmol/g of tissue
same,Plasma Conc.,[17],54.2 nM
same,Tumor Conc.,[17],2.19 nmol/g of tissue
same,Plasma Conc.,[18],BQL
same,Tumor Conc.,[18],0.188 nmol/g of tissue
same,Tumor/Plasma Ratio,"after SDC-TRAP-0046 IV, 6 h",0.844
same,Tumor/Plasma Ratio,"after SDC-TRAP-0046 IV, 12 h",2.20
same,Tumor/Plasma Ratio,"after SDC-TRAP-0046 IV, 24 h",40.3
same,Tumor/Plasma Ratio,"after SDC-TRAP-0046 IV, […]",0.0193
same,Media (5 μM) % Remaining 19 h (37° C.),[6],37%
same,Media (5 μM) % Remaining 1 h (37° C.)§,[6]; data from single parent peak,62%
same,Media (5 μM) % Remaining 1 h (37° C.)*,[6]; sum of both peaks,65%
same,Mass Retention,[7],88.1%
same,antitumor activity in HCT-116 xenografts (FIG. 23),[8],better activity in inhibiting the growth of HCT-116 cells in vivo than either positive control group
same,% Remaining (1 h),[9]; % Remaining of parent after 1 h incubation in mouse plasma at 37° C. (10 μM),51.6%
same,"% Remaining (1 h, 37° C.)","[9]; mouse plasma, 1 h, 37° C.",52%
same,Mouse (10 μM) % Remaining 1 h (37° C.)§,"[9]; mouse plasma, data from single parent peak",50%
same,Mouse (10 μM) % Remaining 1 h (37° C.)*,"[9]; mouse plasma, sum of both peaks",52%
